{
  "source": "patent US20050009913A1",
  "about": "“Method for inactivating bacteria and leukocytes in thrombocyte suspensions” (priority 2001, published 2005)",
  "key": {"S. epidermidis": {"system": "S. epidermidis", "assay": "Photoinactivation of S. epidermidis in TC (colony forming assay)", "type": "cell-based, Staphylococcus epidermidis", "details": "for Bacteria titre after light, Exp. 1 / Bacteria titre after light, Exp. 2: compound 2 mM, light energy input 3000 kJ/m^2", "method": "(§1) In the experiments described, TC was used which had been obtained from the buffy coats of donor blood and which was suspended in plasma or in a conventional storage medium (T-sol) with approximately 40% plasma. A system fitted with xenon lamps and in which the emitted UV fraction was masked out by a window glass filter was used for the exposure. Staphylococcus (S.) epidermidis was generally used as the test bacterium. Bacteria titres were determined using a colony forming assay. These are given in “colony forming units per ml” (CFU/ml).\n(§2) In the experiments on the inactivation of bacteria TC aliquots of respectively 60 ml located in PVC storage bags having a nominal volume of 500 ml were treated. After adding delta-Ala or the methyl ester of delta-Ala (see Table 1) the samples were pre-incubated for one hour at room temperature in the thrombocyte rotator and then exposed to light. In the experiments on the inactivation of leukocytes the samples were pre-incubated overnight (i.e., for approximately 16-20 h) or for 4 hours. The light energy deposited in the samples is given in kilojoules per m^2 (kJ/m^2). 3000 kJ/m^2 corresponds to an exposure time of about one hour. Each experiment was carried out at least twice.\nIn order to determine the quantity of light sufficient to largely inactivate S. epidermidis, i.e., by at least 2 log10 grades, the following experiments were carried out: 1000 to 1500 CFU/ml S. epidermidis was added to TC, either in storage medium having a plasma content of approximately 40% or in plasma; delta-Ala was then added in a concentration of 0.25 mM (plasma-reduced TC) or 1 mM (TC with approximately 100% plasma). After pre-incubating for one hour at room temperature, the samples were exposed to different amounts of light. The results are plotted in FIGS. 3 and 4."}, "Pseudomonas aeroginosa": {"system": "Pseudomonas aeroginosa", "assay": "Photoinactivation of Pseudomonas aeroginosa in TC (colony forming assay)", "type": "cell-based", "details": "1 mM delta-Ala", "method": "as §1, §2"}, "Staphylococcus aureus": {"system": "Staphylococcus aureus", "assay": "Photoinactivation of Staphylococcus aureus in TC (colony forming assay)", "type": "cell-based", "details": "1 mM delta-Ala", "method": "as §1, §2"}, "Yersinia enterocolitica": {"system": "Yersinia enterocolitica", "assay": "Photoinactivation of Yersinia enterocolitica in TC (colony forming assay)", "type": "cell-based", "details": "1 mM delta-Ala", "method": "as §1, §2"}, "Escherichia coli": {"system": "Escherichia coli", "assay": "Photoinactivation of Escherichia coli in TC (colony forming assay)", "type": "cell-based", "details": "1 mM delta-Ala", "method": "as §1, §2"}, "Serratia marescens": {"system": "Serratia marescens", "assay": "Photoinactivation of Serratia marescens in TC (colony forming assay)", "type": "cell-based", "details": "1 mM delta-Ala", "method": "as §1, §2"}, "Enterobacter cloacae": {"system": "Enterobacter cloacae", "assay": "Photoinactivation of Enterobacter cloacae in TC (colony forming assay)", "type": "cell-based", "details": "1 mM delta-Ala", "method": "as §1, §2"}, "T lymphocytes": {"system": "T lymphocytes", "assay": "Photoinactivation of T lymphocytes in TC (Con A proliferation assay, BRDU incorporation)", "type": "cell-based", "details": "pre-incubation approx. 16 h, light energy input 2000 kJ/m^2 (FIG. 5)", "method": "as §2"}, "thrombocytes": {"system": "thrombocytes", "assay": "Functional in-vitro properties of TC after delta-Ala and exposure to light (hypotonic shock reaction, collagen-induced aggregation)", "type": "cell-based", "details": "after treatment with delta-Ala and subsequent exposure to light"}, "[1]": {"details": "after exposure, 1500 kJ/m^2, average of two experiments"}, "[2]": {"details": "before exposure, average of two experiments"}},
  "data": [
    {"smiles": "NCC(=O)CCC(=O)O", "note": "[Delta-Ala, 6-aminolevulinic acid]", "values": [
      {"measurement": "Bacteria titre after light, Exp. 1", "setting": "S. epidermidis; TC in 100% plasma", "value": 5, "unit": "CFU/ml"},
      {"measurement": "Bacteria titre after light, Exp. 2", "setting": "S. epidermidis; TC in 100% plasma", "value": 3.5, "unit": "CFU/ml"},
      {"measurement": "Bacteria titre after exposure", "setting": "S. epidermidis; TC, 1 mM delta-Ala, after exposure, 1500 kJ/m^2, average of two experiments", "value": 2, "unit": "CFU/ml"},
      {"measurement": "Bacteria titre before exposure", "setting": "S. epidermidis; TC, 1 mM delta-Ala, before exposure, average of two experiments", "value": 2440, "unit": "CFU/ml"},
      {"measurement": "delta-Ala concentration sufficient for inactivation", "setting": "S. epidermidis; plasma-reduced TC, light energy input 3000 kJ/m^2 (FIG. 2)", "value": "≤ 0.1", "unit": "mM"},
      {"measurement": "Light energy to be irradiated for extensive inactivation of the bacteria", "setting": "S. epidermidis; thrombocytes suspended in 100% plasma, 1 mM delta-Ala, pre-incubation one hour (FIG. 4)", "value": "approximately 3000 kJ/m^2"},
      {"measurement": "Bacteria titre after exposure", "setting": "Pseudomonas aeroginosa; [1]", "value": 1, "unit": "CFU/ml"},
      {"measurement": "Bacteria titre before exposure", "setting": "Pseudomonas aeroginosa; [2]", "value": 700, "unit": "CFU/ml"},
      {"measurement": "Reduction of infectious titre", "setting": "Staphylococcus aureus; 1500 kJ/m^2", "value": "~97", "unit": "%"},
      {"measurement": "Bacteria titre after exposure", "setting": "Staphylococcus aureus; [1]", "value": 51, "unit": "CFU/ml"},
      {"measurement": "Bacteria titre before exposure", "setting": "Staphylococcus aureus; [2]", "value": 2000, "unit": "CFU/ml"},
      {"measurement": "Bacteria titre after exposure", "setting": "Yersinia enterocolitica; [1]", "value": 1, "unit": "CFU/ml"},
      {"measurement": "Bacteria titre before exposure", "setting": "Yersinia enterocolitica; [2]", "value": 4650, "unit": "CFU/ml"},
      {"measurement": "Bacteria titre after exposure", "setting": "Escherichia coli; [1]", "value": 3, "unit": "CFU/ml"},
      {"measurement": "Bacteria titre before exposure", "setting": "Escherichia coli; [2]", "value": 11300, "unit": "CFU/ml"},
      {"measurement": "Bacteria titre after exposure", "setting": "Serratia marescens; [1]", "value": 1, "unit": "CFU/ml"},
      {"measurement": "Bacteria titre before exposure", "setting": "Serratia marescens; [2]", "value": 2500, "unit": "CFU/ml"},
      {"measurement": "Reduction of infectious titre", "setting": "Enterobacter cloacae; 1500 kJ/m^2", "value": "approximately 95%"},
      {"measurement": "Bacteria titre after exposure", "setting": "Enterobacter cloacae; [1]", "value": 1280, "unit": "CFU/ml"},
      {"measurement": "Bacteria titre before exposure", "setting": "Enterobacter cloacae; [2]", "value": 24500, "unit": "CFU/ml"},
      {"measurement": "Required concentration of delta-Ala for photoinactivation of T lymphocytes", "setting": "T lymphocytes", "value": "higher than 1 mM"},
      {"measurement": "Functional in-vitro properties of TC and other thrombocyte parameters after treatment", "setting": "thrombocytes", "value": "had not changed"}
    ]},
    {"smiles": "COC(=O)CCC(=O)CN", "note": "[Methyl-Ala, delta-Ala methyl ester]", "values": [
      {"measurement": "Efficacy of inactivation of S. epidermidis compared with delta-Ala", "setting": "S. epidermidis; TC in 100% plasma, 2 mM, 3000 kJ/m^2 (Table 1)", "value": "the same efficacy"},
      {"measurement": "Bacteria titre after light, Exp. 1", "setting": "S. epidermidis; TC in 100% plasma", "value": 1.5, "unit": "CFU/ml"},
      {"measurement": "Bacteria titre after light, Exp. 2", "setting": "S. epidermidis; TC in 100% plasma", "value": 4, "unit": "CFU/ml"}
    ]}
  ]
}
